Experimental data published in patent US7884067B2, “Peptides derived from cadherin and methods of use thereof” (Mount Sinai School of Medicine of New York University, priority 2001, dated 2011).

How the values were obtained:
[1] = system: N-cadherin; assay: N-cadherin processing in fibroblast cultures (Western blot, C32); assay type: cell-based, mouse; settings: WT fibroblasts, L-685,458 (0.5 μM), 16 hours
Description: Extracts from PS1+/+ or PS1−/− mouse embryos were probed on WBs with either anti-cytoplasmic N-cadherin antibody (FIG. 7A, upper panel) or anti-PS I/CTF antibody 33B10 (FIG. 7A, lower panel). Extracts from PS1+/+ or PS1−/− fibroblast cultures were incubated for 16 hours in the absence or presence of DMSO, L-685,458 (0.5 μM) and probed on WBs with either C32 or 33B10 antibodies.

[2] = system: N-cadherin; assay: In vitro ε-cleavage assay, membranes from mouse fibroblasts or N2a cell cultures; assay type: biochemical; set-up: dose or concentration left out as unconfirmed; settings: cultures incubated 16 hours with L-685,458; membranes 37° C. 2 hours
Description: In vitro γ-secretase-like ε-cleavage assay. Cells were washed in PBS, resuspended in 1 ml of 4° C. hypotonic buffer (10 mM MOPS, pH 7.0, 10 mM KCl) and homogenized on ice. A post-nuclear supernatant was prepared by centrifugation at 1000×g for 15 minutes at 4° C. Crude membranes were isolated from the post-nuclear supernatant by centrifugation at 16,000×g for 40 minutes at 4° C. The membranes were then resuspended in […] of assay buffer (150 mM sodium citrate, pH 6.4, 1× Complete protease inhibitor cocktail), and incubated at 37° C. for 2 hours. Samples were either analyzed directly by WB or separated into pellet (P100) and supernatant (S100) fractions by ultracentrifugation for 1 hour at 100,000×g at 4° C. The S100 and P100 fractions were then analyzed by WB.
To detect the product of the PS1-dependent cleavage of N-cadherin, an in vitro assay that uses incubation of membrane fractions to detect the ICD product of the E-cleavage of APP was used. (Gu et al. (2001) J. Biol. Chem. 276:35235-35238; McLendon et al. (2000) FASEB J. 14:2383-2386). […]

CC(C)C[C@H](NC(=O)[C@H](Cc1ccccc1)C[C@@H](O)[C@H](Cc1ccccc1)NC(=O)OC(C)(C)C)C(=O)N[C@@H](Cc1ccccc1)C(N)=O [L-685,458]
40 kDa peptide N-Cad/CTF1 [1]: accumulates | soluble 35 kDa peptide N-Cad/CTF2 [2]: completely absent
